# The source made the active and inactive calls. No cut-off for these calls is given here.
# Experiments:
# Mus musculus [1] = assay: Anticonvulsant activity in albino CD1 mouse assessed as protection against maximal electroshock-induced seizures at 300 mg/kg, ip measured after 4 hrs; type: functional, organism-based
# Mus musculus [2] = assay: Anticonvulsant activity in ip dosed albino CD1 mouse assessed as protection against 32 mA current-induced seizure by 6 Hz psychomotor test; type: functional
# Mus musculus [3] = assay: Anticonvulsant activity in ip dosed albino CD1 mouse assessed as protection against subcutaneous pentylenetetrazole-induced seizures; type: functional
# Mus musculus [4] = assay: Anticonvulsant activity in ip dosed albino CD1 mouse assessed as protection against maximal electroshock-induced seizures; type: functional
# Mus musculus [5] = assay: Anticonvulsant activity in albino CD1 mouse assessed as protection against 32 mA current-induced seizure at 100 mg/kg, ip after 0.5 hrs by 6 Hz psychomotor test; type: functional
# Mus musculus [6] = assay: Neurotoxicity in ip dosed albino CD1 mouse assessed as minimum dose required to induce motor impairment in half and more mouse measured after 4 hrs by rotarod test; type: toxicity, organism-based; conditions: in vivo
# Mus musculus [7] = assay: Neurotoxicity in ip dosed albino CD1 mouse assessed as minimum dose required to induce motor impairment in half and more mouse measured after 0.5 hrs by rotarod test; type: toxicity, organism-based; conditions: in vivo
# Mus musculus [8] = assay: Anticonvulsant activity in albino CD1 mouse assessed as protection against subcutaneous pentylenetetrazole-induced seizures at 300 mg/kg, ip measured after 0.5 hrs; type: functional, organism-based
# Mus musculus [9] = assay: Anticonvulsant activity in ip dosed albino CD1 mouse assessed as minimum dose required to protect subcutaneous pentylenetetrazole-induced seizures in half and more mouse measured after 4 hrs; type: functional
# Mus musculus [10] = assay: Anticonvulsant activity in ip dosed albino CD1 mouse assessed as minimum dose required to protect maximal electroshock-induced seizures in half and more mouse measured after 0.5 hrs; type: functional
# [11] = Neurotoxicity in ip dosed albino CD1 mouse assessed as motor impairment by rotarod test; type: toxicity, organism-based; conditions: in vivo
# Mus musculus [12] = assay: Protection index, ratio of TD50 for motor impairment in ip dosed albino CD1 mouse to ED50 for protection against maximal electroshock-induced seizures in ip dosed albino CD1 mouse
# Mus musculus [13] = assay: Protection index, ratio of TD50 for motor impairment in ip dosed albino CD1 mouse to ED50 for protection against subcutaneous pentylenetetrazole-induced seizures in ip dosed albino CD1 mouse
# Mus musculus [14] = assay: Protection index, ratio of TD50 for motor impairment in ip dosed albino CD1 mouse to ED50 for protection against 32 mA current-induced seizure in ip dosed albino CD1 mouse by 6 Hz psychomotor test
# Mus musculus [15] = assay: Anticonvulsant activity in ip dosed albino CD1 mouse assessed as protection against maximal electroshock-induced seizures by measuring time to peak effect; type: functional
# Mus musculus [16] = assay: Anticonvulsant activity in ip dosed albino CD1 mouse assessed as protection against subcutaneous pentylenetetrazole-induced seizures by measuring time to peak effect; type: functional
# Rattus norvegicus = organism: Rattus norvegicus; assay: Inhibition of [3H]-BTX binding to voltage-sensitive Na+ channel site 2 in Sprague-Dawley rat cerebral cortex synaptoneurosomes at 100 uM after 60 mins by liquid scintillation spectroscopic method relative to control
# Homo sapiens = organism: Homo sapiens; assay: Inhibition of N-type calcium channel (unknown origin)
compound,measurement,setting,value
O=C1CC(C(c2ccccc2)c2ccccc2)C(=O)N1CN1CCOCC1 (stereo not drawn),Activity,Mus musculus [1],inactive
same,ED50,Mus musculus [2],45.4 mg/kg
same,ED50,Mus musculus [3],102 mg/kg
same,ED50,Mus musculus [4],41 mg/kg
same,Activity,Mus musculus [5],100%
same,Activity,Mus musculus [6],300 mg/kg
same,Activity,Mus musculus [7],300 mg/kg
same,Activity,Mus musculus [8],inactive
same,Activity,Mus musculus [9],100 mg/kg
same,Activity,Mus musculus [10],100 mg/kg
same,TD50,[11],254 mg/kg
same,Ratio TD50/ED50,Mus musculus [12],6.2
same,Ratio TD50/ED50,Mus musculus [13],2.5
same,Ratio TD50/ED50,Mus musculus [14],5.59
same,Time,Mus musculus [15],0.5 h
same,Time,Mus musculus [16],4 h
same,inhibition,Rattus norvegicus,29.9%
same,inhibition,Homo sapiens,inactive

# Reference: ChEMBL document CHEMBL3997820, “Synthesis and evaluation of anticonvulsant properties of new N-Mannich bases derived from pyrrolidine-2,5-dione and its 3-methyl-, 3-isopropyl, and 3-benzhydryl analogs” (Bioorg Med Chem Lett, 2017)
